From US20070248997A1, “METHOD OF USING ONE-D[…] MULTI-D[…] MAGNETIC RESONANCE TO IDENTIFY COMPOUNDS THAT INTERACT WITH TARGET BIOMOLECULES” (Smithkline Beecham Corporation, priority 1999, published 2007)

Target: Ni^2+ form of Peptide Deformylase (S. Aureus) (Staphylococcus aureus, UniProt P68826)
Assay: Deformylation of For-Met-Ala-Ser-OH by Ni-PDF monitored by 1H NMR over incubation times
Type: biochemical
Details: for interaction constant α between I1 and I2: 0.4 mM 8-hydroxyquinoline (I1) + 0.15 mM N-Nitro-N′-(N-phenylamino)guanidine (I2); for interaction constant α between I1 and I2 / Ki: 2.5 mM substrate, 1 uM enzyme, assuming a KM of 2.5 mM, FIG. 4; for Ki: from slopes of formate buildup, read-out: KEI (constant of inhibition)
Protocol: FIG. 1 depicts the deformylation of For-Met-Ala-Ser-OH catalyzed by the Ni^2+ form of Peptide Deformylase (S. Aureus) (herein also referred to as “PDF”) over a range of incubation times, as monitored by 1H nuclear magnetic resonance spectroscopy.
FIG. 4 depicts the deformylation of For-Met-Ala-Ser-OH catalyzed by the Ni^2+ form of Peptide Deformylase (S.Aureus) over a range of incubation times, as monitored by 1H nuclear magnetic resonance spectroscopy of the buildup of the formate (For) moiety. Four slopes are illustrated in this figure, the first one (∘) is a “control” experiment using 2.5 mM of substrate (For-Met-Ala-Ser-OH) and 1 uM of enzyme. […] The third slope (∇) contains 0.15 mM of N-Nitro-N′-(N-phenylamino)guanidine (I2) in the presence of 2.5 mM of substrate and 1 uM of enzyme. Finally the fourth slope (⋄) contains both I1 and I2 at 0.4 mM and 0.15 mM, respectively, in the presence of 2.5 mM of substrate and 1 uM of enzyme. Calculating the four slopes and using the steady-state rate equations for this system, it is straightforward to calculate the KEI1, KEI2, and α value.

Chain of Ni^2+ form of Peptide Deformylase (S. Aureus) (P68826 whole entry): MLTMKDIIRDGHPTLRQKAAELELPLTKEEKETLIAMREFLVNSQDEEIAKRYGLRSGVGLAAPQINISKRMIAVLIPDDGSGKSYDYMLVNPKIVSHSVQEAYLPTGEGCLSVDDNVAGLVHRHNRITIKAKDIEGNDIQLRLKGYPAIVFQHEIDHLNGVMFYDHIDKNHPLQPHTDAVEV

Oc1cccc2cccnc12 [8-hydroxyquinoline]
interaction constant α between I1 and I2: 0.72
Ki: 335 µM
deformylation of For-Met-Ala-Ser-OH (rate at which product resonance peak increases) (8-hydroxyquinoline added to substrate + Ni-PDF mixture, FIG. 1): slightly inhibited

N=C(NNc1ccccc1)N[N+](=O)[O-] [N-Nitro-N′-(N-phenylamino)guanidine]
interaction constant α between I1 and I2: 0.72
Ki: 151 µM
